These results are taken from EP0250264A1, “Irreversible dopamine-Beta-hydroxylase inhibitors” (SMITHKLINE BECKMAN CORPORATION, priority 1986, dated 1987).

In test [1] the test system is Spontaneously hypertensive rats. Put plainly: Mean arterial blood pressure in spontaneously hypertensive rats, monitored with indwelling tail artery cannulae. The test is classed as in vivo. To be noted: 100 mg/kg intraperitoneally; for blood pressure reduction remaining at 260 minutes: 260 minutes after administration, b38 compares to vehicle-treated controls. On the procedure: Spontaneously hypertensive rats were dosed with a suspension or solution of ß-ethynylbenzeneethanamine- methane sulfonate at a dose of 100 mg/kg intraperitoneally, and mean arterial blood pressure was monitored for 260 minutes using indwelling cannulae positioned in the tail arteries.
Blood pressure also was monitored in spontaneously hypertensive rats given 100 mg/kg intraperitoneally B-ethynyl-3-hydroxybenzeneethanamine hydrochloride.

Test [2] has as its target T1, DBH (Homo sapiens, UniProt P09172).
T1 sequence (P09172 1-617): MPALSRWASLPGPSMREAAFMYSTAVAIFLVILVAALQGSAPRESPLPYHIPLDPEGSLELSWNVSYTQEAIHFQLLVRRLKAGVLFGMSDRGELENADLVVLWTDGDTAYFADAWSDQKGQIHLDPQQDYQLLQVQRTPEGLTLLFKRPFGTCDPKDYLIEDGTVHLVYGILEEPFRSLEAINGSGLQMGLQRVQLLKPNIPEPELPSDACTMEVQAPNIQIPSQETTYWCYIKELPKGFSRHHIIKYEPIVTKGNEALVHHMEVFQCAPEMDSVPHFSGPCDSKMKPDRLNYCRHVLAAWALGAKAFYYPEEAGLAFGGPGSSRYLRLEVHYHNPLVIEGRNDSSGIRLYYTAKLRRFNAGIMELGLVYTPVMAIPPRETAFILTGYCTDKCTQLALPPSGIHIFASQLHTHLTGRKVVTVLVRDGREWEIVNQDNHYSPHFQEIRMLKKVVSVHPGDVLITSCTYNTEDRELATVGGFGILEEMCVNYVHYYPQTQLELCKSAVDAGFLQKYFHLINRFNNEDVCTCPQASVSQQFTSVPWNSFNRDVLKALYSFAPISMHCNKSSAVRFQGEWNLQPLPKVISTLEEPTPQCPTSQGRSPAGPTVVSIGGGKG
Briefly: DBH inhibition assay, conversion of tyramine to octopamine (enzyme inhibition kinetic study). The test is classed as biochemical. To be noted: enzyme incubated for up to 50 minutes with 10, 20, 40, or 80 µM concentrations. On the procedure: DBH activity was assayed by a standard procedure for measuring the conversion of tyramine to octopamine in the presence of DBH. J.J. Pisano, et al., Biochim. Biophy. Acta, 43, 566-68 (1960). Octopamine was assayed following sodium periodate oxidation to p-hydroxybenzaldehyde by measuring spectrophotometric absorbance at 330 nm.
To measure DBH inhibition, the enzyme was incubated for up to 50 minutes with 10, 20, 40, or 80 µM concentrations of ß-ethynyl-4-hydroxybenzeneethanamine.

In test [3] the target is T1, DBH. To be noted: cited from earlier work.

On to `C#CC(CN)c1cccc(O)c1` (stereo not shown) [ß-Ethynyl-3-Hydrpxybenzeneethanamine], for which the “blood pressure reduction remaining at 260 minutes” value in test [1] is given as “approximately ten”. The blood pressure reductions entry in test [1] (forty minutes following compound administration) is given as “thirty”.

In the case of `C#CC(CN)c1ccc(O)cc1.Cl` (stereo not shown) [ß-ethynyl-4-hydroxybenzeneethanamine, ß-Ethynyl-4-Hydroxybenzeneethanamine Hydrochloride], in test [2], the DBH inhibition entry is “concentration- dependent DBH inhibition” and the “enzyme inhibition, dependence on time” value was “time-dependent”.

As to `C#CC(CN)c1ccccc1.CS(=O)(=O)O` (stereo not shown) [ß-ethynylbenzeneethanamine- methane sulfonate], in test [1], the “blood pressure reduction remaining at 260 minutes” value was “approximately twenty”. Besides, in test [1] (twenty to forty minutes following administration), the “reductions in blood pressure” value is listed as “approximately twenty”.

phenylpicolinic acid: the “inhibitory activity relative to fusaric acid” value in test [3] is given as “twice the inhibitory activity of fusaric acid”.
